The source of these data is patent US20050267020A1, “Polypeptides derived from inducible hsp70 and pharmaceutical compositions containing the same” (priority 2001, published 2005).

In one test the test system is HHD mice. The test can be described thus: Generation of CTL in HLA-A*0201 transgenic HHD mice (immunogenicity). In kind it is in vivo, mouse. How it is done:
Generation of CTL in HLA-transgenic mice. HLA-transgenic mice were injected subcutaneously at the base of the tail with 100 μg of peptide emulsified in incomplete Freund's adjuvant (IFA) in the presence of 140 μg of the I-A^b restricted HBVcore-derived T-helper epitope (128-140; sequence TPPAYRPPNAPIL). After 11 days, spleen cells (5×10^7 cells in 10 mL) were stimulated in vitro with peptide (10 μM). On day 6 of culture, the bulk responder populations were tested for specific cytotoxicity. Upon response, the CTL line was then weekly re-stimulated in vitro with 20×10^6 35Gy irradiated spleen cells in the presence of 1 to 0.1 μM peptide and 50 U/mL IL-2 (Proleukin, Chiron Corp.). Cytotoxicity was assayed 6 days after the last stimulation and TNF-α secretion 11-13 days after, with the addition of 50 U/mL IL-2 on day 7. HHD mice transgenic for HLA-A*0201 were used. B7B7 Kd mice and mice transgenic for HLA-A*0301 are used for the study of the HLA-B*0701 and HLA-A*0301 restricted peptides respectively.

In test [1] the test system is COS cells transfected with both Hsp70 and HHD expression vectors. In words: Peptide processing assay on COS-transfected cells, TNF-α secretion by murine CTL. In kind it is cell-based, simian. The source says: After contact of murine CTL lines with transfected COS cell, CTL recognition of COS cells is expressed as CTL secretion of TNF-α dosed in supernatant (X Axis, TNF-α ranges from 0 to 500 pg/ml). The graphs represent TNF-α dosage by cytotoxic cell lines, respectively mCTL380, mCTL391 mCTL393 and mCTL134, after contact with COS cells. In each graph, upper to lower bars represent the different cells in contact with CTL, respectively: negative control (no COS cell), COS cells, COS cells transfected with Hsp70 expression plasmid, COS cells transfected with HHD expression plasmid, positive control (COS cells transfected with HHD and pulsed with the respective peptide), COS cells transfected with HHD and with Hsp70 expression plasmids.
Peptide Processing Assay on COS-Transfected Cells. 2.2×10^4 simian COS cells were plated in flat-bottom 96 well plates in DMEM 10% FCS, in quadruplicates for each condition. 18 hours later, the medium is discarded, and 100 ng of each DNA plasmid, encoding for Hsp70 and HLA class I molecules, is put in contact with COS cells in DMEM 10% Nuserum […] Chloroquine 10 mg/mL DEAE Dextran. After 4 hours of incubation at 37° C., transfection medium is discarded, and 50 μL PBS 10% DMSO is added for 2 minutes for integration of plasmids. It is then discarded and transfected COS cells are placed in DMEM 10% FCS for 40 hours. Transfected COS cells are then used with 5×10^4 murine CTL in a TNF-α secretion assay.
TNF-α Secretion Assay. Transfected COS cells on day 4 or 10^5 target tumor cells were plated in 50 μL RPMI 10% FCS and when necessary incubated with 10 μM peptide for 1 hour. In blocking experiments, anti-HLA class I antibody w6/32 or an irrelevant antibody were incubated with target cells for 1 h30. 5×10^4 T cells were then added in 50 μL RPMI 10% FCS and incubated for 6 hours. Each condition was tested in quadruplicates. 50 μL of the supernatant was collected. Standard dilutions were prepared in 50 μL with final doses of TNF-α (kindly provided by I. Apfler, Bender Wien, Austria) ranging from 10^4 to 0.08 pg/mL. On both the supernatants and the standards were added 50 μL of 3×10^4 TNF-α sensitive WEHI-164c13 cells. They were incubated for 16 hours at 37° C. (23). Inhibition of cell proliferation was evaluated by the MTT colorimetric method. Briefly, 50 μL of MTT at 2.5 mg/mL (Sigma-Aldrich) was added and incubated for 4 hours at 37° C. Cells were then lyzed with 100 μL of a pH4.7 33% N,N-dimethyl formamide (Sigma-Aldrich) 20% SDS solution in water. Two hours after cells lysis, OD was measured at 550 nm on a Dynatech MR5000 spectrophotometer. TNF-α quantitation was calculated by linear interpolation with the standard dilutions.

Take LLLLDVAPL [HSP 391]: the “induction of specific cytotoxic T cell immune response in HHD mice” value (“induction” for short) with HHD mice is on record as “capable of generating a specific cytotoxic T cell immune response”. In addition, the “processing of the peptide: recognition of Hsp70 + HHD transfected COS cells by the specific murine CTL line” value (“processing of the peptide” below) in test [1] was “are epitopes”.

Turning to LMGDKSENV [HSP 380], the “induction” value with HHD mice was “capable of generating a specific cytotoxic T cell immune response”. Besides, the “processing of the peptide” value in test [1] was “are epitopes”.

With YLGYPVTNAV [HSP 134(10)], in the test with HHD mice, the “induction” value was “capable of generating a specific cytotoxic T cell immune response”. Moreover, in test [1], the “processing of the peptide” value is recorded as “are epitopes”.
